Test results as given in patent US11767320B2, “Bicyclic dione compounds as inhibitors of KRAS” (INCYTE CORPORATION, priority 2020, dated 2023).

Key:
[1] = biological target: KRAS G12C (Homo sapiens, UniProt P01116, G12C); assay: GDP-GTP exchange assay (fluorescence based guanine nucleotide exchange, bodipy-GDP for GppNHp, SOS1); type: biochemical; details: bodipy-loaded KRAS G12C, 2 hours pre-incubation with inhibitor, read-out: G12C_exchange (KRAS_G12C exchange assay IC50)
Description: The inhibitor potency of the exemplified compounds was determined in a fluorescence based guanine nucleotide exchange assay, which measures the exchange of bodipy-GDP (fluorescently labeled GDP) for GppNHp (Non-hydrolyzable GTP analog) to generate the active state of KRAS in the presence of SOS1 (guanine nucleotide exchange factor). Inhibitors were serially diluted in DMSO and a volume of 0.1 μL was transferred to the wells of a black low volume 384-well plate. 5 μL/well volume of bodipy-loaded KRAS G12C diluted to 5 nM in assay buffer (25 mM Hepes pH 7.5, 50 mM NaCl, 10 mM MgCl2 and 0.01% Brij-35) was added to the plate and pre-incubated with inhibitor for 2 hours at ambient temperature. Appropriate controls (enzyme with no inhibitor or with a G12C inhibitor (AMG-510)) were included on the plate. The exchange was initiated by the addition of a 5 μL/well volume containing 1 mM GppNHp and 300 nM SOS1 in assay buffer. The 10 μL/well reaction concentration of the bodipy-loaded KRAS G12C, GppNHp, and SOS1 were 5-25 nM, 500 uM, and 150 nM, respectively. The reaction plates were incubated at ambient temperature for 2 hours, a time estimated for complete GDP-GTP exchange in the absence of inhibitor. For the KRAS G12D and G12V mutants, similar guanine nucleotide exchange assays were used with 2.5 nM as final concentration for the bodipy loaded KRAS proteins and with 4 hours and 3 hours incubation after adding GppNHp-SOS1 mixture for G12D and G12V, respectively. A cyclic peptide described to selectively bind G12D mutant (Sakamoto et al., BBRC 484.3 (2017), 605-611) or internal compounds with confirmed binding were used as positive controls in the assay plates. Fluorescence intensities were measured on a PheraStar plate reader instrument (BMG Labtech) with excitation at 485 nm and emission at 520 nm.
Either GraphPad prism or XLfit was used to analyze the data. The IC50 values were derived by fitting the data to a four parameter logistic equation producing a sigmoidal dose-response curve with a variable Hill coefficient. Prism equation: Y=Bottom+(Top−Bottom)/(1+10^((Log IC50−X)*Hill slope)); XLfit equation: Y=(A+((B−A)/(1+((X/C)^D)))) where X is the logarithm of inhibitor concentration and Y is the response.

[2] = system: MIA PaCa-2 (KRAS G12C) cells; assay: Cellular pERK HTRF assay; type: cell-based; details: Homo sapiens; MIA PaCa-2 cells, 4 hours, phospho-ERK 1/2 HTRF; read-out: G12C_pERK (KRAS_G12C pERK assay IC50)
Description: MIA PaCa-2 (KRAS G12C; ATCC® CRL-1420), A427 (KRAS G12D; ATCC® HTB53), HPAF-II (KRAS G12D; ATCC® CRL-1997) and NCI-H838 (KRAS WT; ATCC® CRL-5844) cells are purchased from ATCC and maintained in RPMI 1640 media supplemented with 10% FBS (Gibco/Life Technologies). The cells are plated at 5000 cells per well (8 uL) into Greiner 384-well low volume, flat-bottom, tissue culture treated white plates and incubated overnight at 37° C. 5% CO2. The next morning, test compound stock solutions are diluted in media at 3× the final concentration, and 4 uL are added to the cells. The plate is mixed by gentle rotation for 30 seconds (250 rpm) at room temperature. The cells are incubated with the KRAS G12C and G12D compounds for 4 hours or 2 hours respectively at 37° C., 5% CO2.
4 uL of 4× lysis buffer with blocking reagent (1:25) (Cisbio) are added to each well and plates are rotated gently (300 rpm) for 30 minutes at room temperature. 4 uL per well of Cisbio anti Phospho-ERK 1/2 d2 is mixed with anti Phospho-ERK 1/2 Cryptate (1:1) are added to each well, mixed by rotation and incubated overnight in the dark at room temperature. Plates are read on the Pherastar plate reader at 665 nm and 620 nm wavelengths. IC50 determination is performed by fitting the curve of inhibitor percent inhibition versus the log of the inhibitor concentration using the GraphPad Prism 7 software.

KRAS G12C, sequence (P01116 1-188 isoform P01116-2 G12C): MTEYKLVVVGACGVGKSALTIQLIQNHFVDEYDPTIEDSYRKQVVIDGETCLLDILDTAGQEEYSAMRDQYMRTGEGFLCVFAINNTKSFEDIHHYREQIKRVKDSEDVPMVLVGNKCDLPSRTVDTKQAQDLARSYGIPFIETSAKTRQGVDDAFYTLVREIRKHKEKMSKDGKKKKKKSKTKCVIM

IC50 [1] [nM]	IC50 [2] [nM]	SMILES
≤ 100	≤ 100	C=CC(=O)N1CC(F)(Cn2c(=O)c(=O)n(-c3c(C)ccnc3C(C)C)c3nc(-c4c(O)cc(C)cc4F)c(Cl)cc32)C1 [Example 20, 1-((1-acryloyl-3-fluoroazetidin-3-yl)methyl)-7-chloro-6-(2-fluoro-6-hydroxy-4-methylphenyl)-4-(2-isopropyl-4-methylpyridin-3-yl)-1,4-dihydropyrido[2,3-b]pyrazine-2,3-dione]
≤ 100	≤ 100	C=CC(=O)N1CC(F)(Cn2c(=O)c(=O)n(-c3c(C)ccnc3C(C)C)c3nc(-c4c(F)ccc(C)c4O)c(Cl)cc32)C1 [Example 21, 1-((1-acryloyl-3-fluoroazetidin-3-yl)methyl)-7-chloro-6-(6-fluoro-2-hydroxy-3-methylphenyl)-4-(2-isopropyl-4-methylpyridin-3-yl)-1,4-dihydropyrido[2,3-b]pyrazine-2,3-dione]
≤ 100	≤ 100	C=CC(=O)N1CC(F)(Cn2c(=O)c(=O)n(-c3c(C)ccnc3C(C)C)c3nc(-c4c(F)ccc(F)c4O)c(Cl)cc32)C1 [Example 22, 1-((1-acryloyl-3-fluoroazetidin-3-yl)methyl)-7-chloro-6-(3,6-difluoro-2-hydroxyphenyl)-4-(2-isopropyl-4-methylpyridin-3-yl)-1,4-dihydropyrido[2,3-b]pyrazine-2,3-dione]
≤ 100	≤ 100	C=CC(=O)N1CC(F)(Cn2c(=O)c(=O)n(-c3c(C)ccnc3C(C)C)c3nc(-c4c(O)ccc(F)c4F)c(Cl)cc32)C1 [Example 23, 1-((1-acryloyl-3-fluoroazetidin-3-yl)methyl)-7-chloro-6-(2,3-difluoro-6-hydroxyphenyl)-4-(2-isopropyl-4-methylpyridin-3-yl)-1,4-dihydropyrido[2,3-b]pyrazine-2,3-dione]
≤ 100	≤ 100	C=CC(=O)N1CC(F)(Cn2c(=O)c(=O)n(-c3c(C)ccnc3C(C)C)c3nc(-c4c(F)ccc(Cl)c4O)c(Cl)cc32)C1 [Example 24, 1-((1-acryloyl-3-fluoroazetidin-3-yl)methyl)-7-chloro-6-(3-chloro-6-fluoro-2-hydroxyphenyl)-4-(2-isopropyl-4-methylpyridin-3-yl)-1,4-dihydropyrido[2,3-b]pyrazine-2,3-dione]
≤ 100	≤ 100	C=CC(=O)N1CC(F)(Cn2c(=O)c(=O)n(-c3c(C)ccnc3C(C)C)c3nc(-c4c(O)cccc4C(F)(F)F)c(Cl)cc32)C1 [Example 25, 1-((1-acryloyl-3-fluoroazetidin-3-yl)methyl)-7-chloro-6-(2-hydroxy-6-(trifluoromethyl)phenyl)-4-(2-isopropyl-4-methylpyridin-3-yl)-1,4-dihydropyrido[2,3-b]pyrazine-2,3-dione]
100 to 1000	100 to 1000	C=CC(=O)N1CC(F)(Cn2c(=O)c(=O)n(-c3c(C)ccnc3C(C)C)c3nc(-c4cccc5c(C)n[nH]c45)c(Cl)cc32)C1 [Example 27, 1-((1-acryloyl-3-fluoroazetidin-3-yl)methyl)-7-chloro-4-(2-isopropyl-4-methylpyridin-3-yl)-6-(3-methyl-1H-indazol-7-yl)-1,4-dihydropyrido[2,3-b]pyrazine-2,3-dione]
≤ 100	≤ 100	C=CC(=O)N1CC(F)(Cn2c(=O)c(=O)n(-c3c(C)ccnc3C(C)C)c3nc(-c4c(C)ccc5cn[nH]c45)c(Cl)cc32)C1 [Example 28, 1-((1-acryloyl-3-fluoroazetidin-3-yl)methyl)-7-chloro-4-(2-isopropyl-4-methylpyridin-3-yl)-6-(6-methyl-1H-indazol-7-yl)-1,4-dihydropyrido[2,3-b]pyrazine-2,3-dione]
≤ 100	≤ 100	C=CC(=O)N1CC(F)(Cn2c(=O)c(=O)n(-c3c(C)ccnc3C(C)C)c3nc(-c4ccc(C)cc4F)c(Cl)cc32)C1 [Example 33, 1-((1-acryloyl-3-fluoroazetidin-3-yl)methyl)-7-chloro-6-(2-fluoro-4-methylphenyl)-4-(2-isopropyl-4-methylpyridin-3-yl)-1,4-dihydropyrido[2,3-b]pyrazine-2,3-dione]
≤ 100	≤ 100	C=CC(=O)N1CC(F)(Cn2c(=O)c(=O)n(-c3c(C)ccnc3C(C)C)c3nc(-c4cccc(C)c4F)c(Cl)cc32)C1 [Example 34, 1-((1-acryloyl-3-fluoroazetidin-3-yl)methyl)-7-chloro-6-(2-fluoro-3-methylphenyl)-4-(2-isopropyl-4-methylpyridin-3-yl)-1,4-dihydropyrido[2,3-b]pyrazine-2,3-dione]
≤ 100	≤ 100	C=CC(=O)N1CC(F)(Cn2c(=O)c(=O)n(-c3c(C)ccnc3C(C)C)c3nc(-c4cccc(Cl)c4Cl)c(Cl)cc32)C1 [Example 35, 1-((1-acryloyl-3-fluoroazetidin-3-yl)methyl)-7-chloro-6-(2,3-dichlorophenyl)-4-(2-isopropyl-4-methylpyridin-3-yl)-1,4-dihydropyrido[2,3-b]pyrazine-2,3-dione]
≤ 100	≤ 100	C=CC(=O)N1CC(F)(Cn2c(=O)c(=O)n(-c3c(C)ccnc3C(C)C)c3nc(-c4ccccc4Cl)c(Cl)cc32)C1 [Example 36, 1-((1-acryloyl-3-fluoroazetidin-3-yl)methyl)-7-chloro-6-(2-chlorophenyl)-4-(2-isopropyl-4-methylpyridin-3-yl)-1,4-dihydropyrido[2,3-b]pyrazine-2,3-dione]
≤ 100	100 to 1000	C=CC(=O)N1CC(F)(Cn2c(=O)c(=O)n(-c3c(C)ccnc3C(C)C)c3nc(-c4ccccc4C(F)(F)F)c(Cl)cc32)C1 [Example 37, 1-((1-acryloyl-3-fluoroazetidin-3-yl)methyl)-7-chloro-4-(2-isopropyl-4-methylpyridin-3-yl)-6-(2-(trifluoromethyl)phenyl)-1,4-dihydropyrido[2,3-b]pyrazine-2,3-dione]
100 to 1000	100 to 1000	C=CC(=O)N1CC(Cn2c(=O)c(=O)n(-c3c(C)ccnc3C(C)C)c3nc(-c4c(O)cccc4F)c(Cl)cc32)(OC)C1 [Example 38, 1-((1-acryloyl-3-methoxyazetidin-3-yl)methyl)-7-chloro-6-(2-fluoro-6-hydroxyphenyl)-4-(2-isopropyl-4-methylpyridin-3-yl)-1,4-dihydropyrido[2,3-b]pyrazine-2,3-dione]
100 to 1000	100 to 1000	C=CC(=O)N1CC(Cn2c(=O)c(=O)n(-c3c(C)ccnc3C(C)C)c3nc(-c4c(O)ccc(F)c4F)c(Cl)cc32)(OC)C1 [Example 39, 1-((1-acryloyl-3-methoxyazetidin-3-yl)methyl)-7-chloro-6-(2,3-difluoro-6-hydroxyphenyl)-4-(2-isopropyl-4-methylpyridin-3-yl)-1,4-dihydropyrido[2,3-b]pyrazine-2,3-dione]
100 to 1000	100 to 1000	C=CC(=O)N1CC(Cn2c(=O)c(=O)n(-c3c(C)ccnc3C(C)C)c3nc(-c4c(N)cccc4F)c(Cl)cc32)(OC)C1 [Example 40, 1-((1-acryloyl-3-methoxyazetidin-3-yl)methyl)-6-(2-amino-6-fluorophenyl)-7-chloro-4-(2-isopropyl-4-methylpyridin-3-yl)-1,4-dihydropyrido[2,3-b]pyrazine-2,3-dione]
